Test [1] has as its target T1, Fructose-1,6-bisphosphatase 1 (Sus scrofa, UniProt P00636).
T1 sequence (P00636 whole entry): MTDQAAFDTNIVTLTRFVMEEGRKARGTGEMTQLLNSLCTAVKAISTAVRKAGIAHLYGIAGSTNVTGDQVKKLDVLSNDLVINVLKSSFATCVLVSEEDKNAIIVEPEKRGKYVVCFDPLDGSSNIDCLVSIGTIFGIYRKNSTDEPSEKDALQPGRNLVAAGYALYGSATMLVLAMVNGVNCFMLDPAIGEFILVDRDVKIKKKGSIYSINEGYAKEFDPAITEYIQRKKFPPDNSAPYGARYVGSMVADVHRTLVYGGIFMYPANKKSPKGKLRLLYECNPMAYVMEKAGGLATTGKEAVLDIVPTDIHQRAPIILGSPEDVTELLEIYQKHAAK
The test is described as follows: Inhibition of pig kidney fructose-1,6-bisphosphatase expressed in Escherichia coli BL21 (DE3) assessed as reduction of NADP+ to NADPH by phosphoglucose isomerase/glucose-6-phosphate dehydrogenase coupled assay.

In test [2] the target is T2, Fructose-1,6-bisphosphatase 1 (Homo sapiens, UniProt P09467).
T2 sequence (P09467 whole entry): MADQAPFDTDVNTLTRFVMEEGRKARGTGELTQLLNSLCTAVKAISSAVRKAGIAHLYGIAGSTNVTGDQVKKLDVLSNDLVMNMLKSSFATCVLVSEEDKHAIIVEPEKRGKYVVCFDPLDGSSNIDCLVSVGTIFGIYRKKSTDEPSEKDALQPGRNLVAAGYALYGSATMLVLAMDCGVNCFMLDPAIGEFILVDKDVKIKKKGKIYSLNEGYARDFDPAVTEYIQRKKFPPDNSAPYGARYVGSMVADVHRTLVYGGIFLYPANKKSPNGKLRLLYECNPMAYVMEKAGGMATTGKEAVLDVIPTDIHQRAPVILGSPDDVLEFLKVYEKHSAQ
The test is described as follows: Inhibition of human liver fructose-1,6-bisphosphatase expressed in Escherichia coli BL21 (DE3) assessed as reduction of NADP+ to NADPH by phosphoglucose isomerase/glucose-6-phosphate dehydrogenase coupled assay. The note with it: for pIC50: read-out: IC50.

Structures are written as SMILES. pIC50: −log10 of the molar value.

Turning to `Oc1cc(O)c2c(c1)oc1cc(O)cc(O)c12`, the IC50 entry in test [1] and in test [2] was “Not Active” throughout. `CC(=O)C1=C(O)C=C2Oc3c(C(C)=O)c(O)c(C)c(O)c3[C@@]2(C)C1=O` [(+)-USNIC ACID]: in test [2], the negative logarithm of the IC50 (pIC50) (usually the IC50 on a negative log10 scale, so that one unit is a factor of ten) was 3.43. `Nc1ncnc2c1ncn2[C@@H]1O[C@H](COP(=O)(O)O)[C@@H](O)[C@H]1O` [ADENOSINE PHOSPHATE]: the pIC50 in test [2] was 5.01.

Source of the values: ChEMBL document CHEMBL1157047, “Designing inhibitors against fructose 1,6-bisphosphatase: exploring natural products for novel inhibitor scaffolds” (Eur J Med Chem, 2010).
